One series has as its system Caspase-3. Put plainly: Western blot of Caspase-3 in Skmel-28 cells treated with CoQ10 building block components. The series is classed as cell-based. As for the experimental part: (§1) Skmel-28 melanoma cells were cultured in DMEM/F12 supplemented with 5% Fetal Bovine Serum (FBS) and 1× final concentration of Antibiotics. The cells were grown to 85% confluency and treated with building block components for 3, 6, 12 and 24 hours. The cells were then pelleted and a Western blot analysis was performed.
(§2) In the Western Blot Analysis, the cells were pelleted in cold PBS, lysed, and the protein levels were quantified using a BCA protein assay. The whole cell lysate was loaded in a 4% loading 12% running Tris-HCl gel. The proteins were then transferred to a nitrocellulose paper then blocked with a 5% milk Tris-buffered solution for 1 hour. The proteins were then exposed to primary antibodies (Bcl-2 and Caspase-3) overnight. The nitrocellulose paper was then exposed to Pico Chemilluminescent for 5 min and the protein expression was recorded. After exposure, actin was quantified using the same method. Using ImageJ the levels of protein expression were quantified. A t-Test was used to analyze for statistical significance.

The subject of the next series is Bcl-2. Put plainly: Western blot of Bcl-2 in Skmel-28 cells treated with CoQ10 building block components. The class given is cell-based. The procedure:
as §1, §2
For orientation: Immunoblotting shows a protein as a band on a membrane.

The subject of the next series is HDFa cells. As to the kind of experiment: SeaHorse XF analyzer OCR and ECAR. The series is classed as cell-based, human. An excerpt: Environmental influencers (e.g., MIMs or Epi-shifters) may also be identified by changes in cellular energetics. One example of the measurement of cellular energetics are the real-time measures of the consumption of molecular oxygen and/or the change in pH of the media of a cell culture. For example, the ability of a potential epi-shifter to modulate the metabolic state of a cell may be analyzed using, for example, the XF24 Analyzer (Seahorse, Inc.). This technology allows for real time detection of oxygen and pH changes in a monolayer of cells in order to evaluate the bioenergetics of a cell microenvironment. The XF24 Analyzer measures and compares the rates of oxygen consumption (OCR), which is a measure of aerobic metabolism, and extracellular acidification (ECAR), which is a measure of glycolysis, both key indicators of cellular energetics.
(SeaHorse Biosciences Inc, North Billerica, Mass.).
In this experiment, the OCR and extracellular acidification rate (ECAR) in normal cells lines were obtained in the presence and absence of CoQ10 to determine baseline values. It was observed that in its native nutrient environment, the basal OCR rates in normal cells lines are different, and are usually a function of the physiological roles of the cells in the body.
FIGS. 29 and 30 describe the OCR in HDFa and HASMC cells grown in physiologically normal glucose (about 4.6 mM) and high glucose (hyperglycemic) conditions.
Table 53, below, describes the ECAR values (mpH/min) in HDFa cells in the presence or absence of CoQ10 under normoxic and hypoxic conditions at 5.5 mM and 22 mM glucose.

The test system of another series is Melanoma cells. As to the kind of experiment: Cell proliferation assay (live cell count) of building block combinations. The class given is cell-based. The procedure: This set of experiments used a cell proliferation assay to assess the effect of combining different building block molecules on cell proliferation.
The first study examined the effect of combining 4-Hydroxy-Benzoate with Benzoquinone. Cells were incubated for 48 hours, after which a cell count was performed for the live cells. Each test group was compared to the control, and each combination groups were compared to Benzoquinone control. The compounds were statistically analyzed for the addition of Benzoquinone.
Additional studies were performed testing additional molar ratios. For the first test 4-Hydroxybenzoic were tested at concentrations of 500 nM, 1 μM, and 50 μM. These concentrations were tested in combination with 2,3-Dimethoxy-5-methyl-p-benzoquinone (Benzo). The concentration of Benzo tested were 25 μM, 50 μM, and 100 μM. Melanoma cells were grown to 80% confluency and seeded in 6 well plates at a concentration of 40K cells per well. The cells were treated with CoQ10, 4-Hydroxybenzoate, Benzo, and a combination of 4-Hydroxybenzoate/Benzo.
A T-test was performed with p<0.05 as statistically significant.

Series [1] has as its system neonatal fibroblast cells. Put plainly: Cell proliferation assay (coulter counter). The class given is cell-based. The note with it: HB 500 nM, 5 μM, 25 μM; benzoquinone 25, 50, 100 μM; 24 hours.
Experimental: A cell proliferation assay was also performed on neonatal fibroblast cells. The concentrations of HB tested were 500 nM, 5 μM, and 25 μM. HB was also tested in combination with benzoquinone at a concentrations of 25 μM, 50 μM, and 100 μM. Melanoma cells were seeded at 40 k cells per well and were treated for 24 hours. The cells were trypsinized and quantified using a coulter counter.
Setting [2] is: 500 nM, 1 μM, 25 μM and 50 μM, all time points.

The values that follow come from US9205064B2, “Methods for the diagnosis of oncological disorders using epimetabolic shifters, multidimensional intracellular molecules, or environmental influencers” (Berg LLC, priority 2009, dated 2015).

For the molecule `C[C@@](O)(CCO)CC(=O)O` [Mevalonic Acid, mevalonic acid], the Caspase-3 expression entry in the series with Caspase-3 (setting [2]) is listed as “no significant”. The Bcl-2 expression result with Bcl-2 (setting [2]) is “no significant reduction”.

For `COC1=C(OC)C(=O)C(C/C=C(\C)CC/C=C(\C)CC/C=C(\C)CC/C=C(\C)CC/C=C(\C)CC/C=C(\C)CC/C=C(\C)CC/C=C(\C)CC/C=C(\C)CCC=C(C)C)=C(C)C1=O` [compound 31510], the ECAR with HDFa cells (50 μM, Hypoxia (5.5 mM)) came to 5 mpH/min; in the series with HDFa cells (50 μM, Hypoxia (22 mM)), 6 mpH/min; in the series with HDFa cells (50 μM, Normoxia (5.5 mM)), 6 mpH/min; in the series with HDFa cells (50 μM, Normoxia (22 mM)), 5 mpH/min; in the series on HDFa cells (100 μM, Hypoxia (5.5 mM)), 5 mpH/min; in the series with HDFa cells (100 μM, Hypoxia (22 mM)) it was 8 mpH/min. Further, the ECAR in the series with HDFa cells (100 μM, Normoxia (5.5 mM)) was 6 mpH/min; in the series with HDFa cells (100 μM, Normoxia (22 mM)) it was 5 mpH/min.

Take `N[C@H](Cc1ccc(O)cc1)C(=O)O` [D-Tyrosine]: the Caspase-3 expression result with Caspase-3 (5 μM, 12 hour) was “increase”.

Turning to `CC(=O)SCCNC(=O)CCNC(=O)[C@H](O)C(C)(C)COP(=O)(O)OP(=O)(O)OC[C@H]1O[C@@H](n2cnc3c(N)ncnc32)[C@H](O)[C@@H]1OP(=O)(O)O` [Acetyl-CoA], the Caspase-3 expression result with Caspase-3 (setting [2]) was “no significant observed”. In addition, in the series with Bcl-2 (setting [2]), the Bcl-2 expression result is listed as “no significant observed reduction”.

For `COc1cc(C(O)C(=O)O)ccc1O` (stereo not drawn) [VMA, 3-methoxy-4-hydroxymandelate], the “apoptotic effect (Bcl-2, Caspase-3)” value in the series with Bcl-2 (100 nM, 250 nM, 500 nM, 1 μM, 25 μM, 50 μM and 100 μM) is reported as “no statistically significant apoptotic effect”.

Turning to `N[C@@H](Cc1ccc(O)cc1)C(=O)O` [L-Tyrosine], the Bcl-2 expression entry in the series with Bcl-2 (500 μM and 5 μM, 24 hours) is recorded as “statistically significant decrease”.

For the molecule `O=C(O)c1ccc(O)cc1` [4-Hydroxybenzoate, 4-hydroxy-benzoate], the “cell number compared to the control” value in the series on Melanoma cells (48 hours) is given as “significant decrease in cell number”. Further, the cell proliferation entry in the series with Melanoma cells (HB 500 nM, 1 μM, 50 μM, p<0.05) is recorded as “significant decrease in cell proliferation”. For the same molecule, in series [1], the “reduction in fibroblast cells” value is recorded as “did not show a significant reduction”.
